{"source": "patent US6737383B1", "about": "“Herbicidal oxadiazolidines” (priority 1999, dated 2004)", "key": {"[1]": {"system": "crabgrass", "assay": "Test A crabgrass", "assay_type": "in vivo, Digitaria spp.", "conditions": "0 to 10 scale where 0 is no effect and 10 is complete control", "procedure": "(§1) Seeds of barnyardgrass (Echinochloa crus-galli), crabgrass (Digitaria spp.), morningglory (Ipomoea spp.), and velvetleaf (Abutilon theophrasti) were planted into a sandy loam soil and treated preemergence by soil drench with test chemicals formulated in a non-phytotoxic solvent mixture which includes a surfactant At the same time, these crop and weed species were also treated postemergence sprayed to runoff, with test chemicals formulated in the same manner.\n(§2) Plants ranged in height from two to eighteen cm and were in the one to two leaf stage for the postemergence treatment. Treated plants and untreated controls were maintained in a greenhouse for approximately eleven days, after which all treated plants were compared to untreated controls and visually evaluated for injury. Plant response ratings, summarized in Table A, are based on a 0 to 10 scale where 0 is no effect and 10 is complete control."}, "[2]": {"system": "morningglory", "assay": "Test A morningglory", "assay_type": "in vivo, Ipomoea spp.", "conditions": "0 to 10 scale where 0 is no effect and 10 is complete control", "procedure": "as §1, §2"}, "[3]": {"system": "Chenopodium album (CHEAL)", "assay": "Test F preemergence, alone and in mixture with rimsulfuron, CHEAL", "assay_type": "in vivo", "conditions": "21 days after treatment, 0-100 scale", "procedure": "Abutilon theophrasti (ABUTH), Chenopodium album (CHEAL), Amaranthus rudis (AMATA), Setaria faberii (SETFA), Panicum dichotomiflorum (PANDI), and Digitaria sanguinalis (DIGSA) were grown from seed in pots of an artificial potting mixture in a greenhouse. Compounds of the present invention were applied at 70 and 105 g ai/ha preemergence. Rimsulfuron was applied at 8.8 and 17.5 g ai/ha. Mixtures of the compounds of the present invention and rimsulfuron were also applied.\n(§3) Following application, the plants were maintained by watering as needed. A fertilizer solution of Peter's 20-20-20 (10 pounds/5 gallons of water) plus Sprint 330, a Iron Chelate micronutrient, (113.5 grams/5 gallons of water) was injected into the water with an Anderson fertilizer injection system to provide approximately 219 ppm of nitrogen with each watering. Artificial lighting was used to supplement natural light to produce a 14 hour photoperiod and: an additional one hour light period was used between 1:00 am to 2:00 am for a night interruption. Greenhouse temperatures were targeted for 27° C. in the day and 21° C. at night. At 21 days after treatment, all plants were evaluated for injury as compared to control plants that were sprayed only with non-phytotoxic solvent.\nColby's equation was used to calculate the expected additive herbicidal effect of the mixtures of Compound 21 and the mixture partners listed above. […]"}, "[4]": {"system": "certain weeds", "assay": "Test F overall statement on synergism with rimsulfuron (Colby's equation)", "assay_type": "in vivo", "conditions": "combinations with rimsulfuron, preemergence", "procedure": "as §3, with “Abutilon theophrasti (ABUTH), Chenopodium album (CHEAL), Amaranthus rudis (AMATA), Setaria […]), Panicum dichotomiflorum (PANDI), and Digitaria sanguinalis (DIGSA) were grown from seed in pots of an artificial potting mixture in a greenhouse. Compounds of the present invention were applied at 70 and 105 g ai/ha preemergence. Rimsulfuron was applied at 8.8 and 17.5 g ai/ha. Mixtures of the compounds of the present invention and rimsulfuron were also applied. Following” for “Following”, “solvent. […] Colby's equation was used to calculate the expected additive herbicidal effect of the mixtures of Compound 21 and the mixture partners listed above. […]” for “solvent.”"}, "[5]": {"system": "Digitaria sanguinalis (DIGSA)", "assay": "Test F preemergence, alone and in mixture with rimsulfuron, DIGSA", "assay_type": "in vivo", "conditions": "21 days after treatment, 0-100 scale", "summary_of_the_method": "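Greenhouse pot plants treated preemergence with compound at 70 and 105 g ai/ha, rimsulfuron at 8.8 and 17.5 g ai/ha, or mixtures; 27° C day/21° C night, 14 hour photoperiod. Injury scored at 21 days after treatment against solvent-sprayed controls; expected additive effect of mixtures calculated by Colby's equation.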"}, "[6]": {"conditions": "Alone: Cmpd. rate 70, Rimsulfuron 0"}, "[7]": {"conditions": "Alone: Cmpd. rate 105, Rimsulfuron 0"}}}
{"molecule": "CCN(CC)C(=O)n1oc(=O)n(-c2c(C)cccc2C)c1=O", "note": "[Compound 2]", "values": [{"measurement": "Plant response rating, Crabgrass", "setting": "[1]; Postemergence, Rate 1000 g/ha", "result": 0}, {"measurement": "Plant response rating, Crabgrass", "setting": "[1]; Pre-emergence, Rate 2000 g/ha", "result": 2}, {"measurement": "Plant response rating, Morningglory", "setting": "[2]; Postemergence, Rate 1000 g/ha", "result": 0}, {"measurement": "Plant response rating, Morningglory", "setting": "[2]; Pre-emergence, Rate 2000 g/ha", "result": 0}]}
{"molecule": "CC(C)N(C(=O)n1oc(=O)n(-c2ccc(Cl)cc2Cl)c1=O)c1ccc(F)cc1", "note": "[Compound 7, 4-(2,4-Dichlorophenyl)-N-(4-fluorophenyl)-N-(1-methylethyl)-3,5-dioxo-1,2,4-oxadiazolidine-2-carboxamide]", "values": [{"measurement": "melting point", "result": "57 to 60", "unit": "°C"}]}
{"molecule": "CC(C)N(C(=O)n1oc(=O)n(C2CC2)c1=O)c1ccc(F)cc1", "note": "[Compound 242]", "values": [{"measurement": "CHEAL Observed", "setting": "[3]; [6]", "result": 30, "unit": "%"}, {"measurement": "CHEAL Observed", "setting": "[3]; [7]", "result": 100, "unit": "%"}, {"measurement": "Weed control of combination with rimsulfuron compared with expectation from Colby's equation", "setting": "[4]", "result": "better control of certain weeds than expected"}, {"measurement": "DIGSA Observed", "setting": "[5]; [6]", "result": 100, "unit": "%"}, {"measurement": "DIGSA Observed", "setting": "[5]; [7]", "result": 100, "unit": "%"}]}
